The record followed here is patent US9150482B2 (Development Center for Biotechnology, priority 2012, dated 2015).

Like-named read-outs stand apart in the source and are kept apart here. Marks after values point to notes of the source that are not given here.

The target of one assay is T1, GLP-1 receptor (Homo sapiens, UniProt P43220).
T1 construct: expressed in transfected cells; host or cells: U2OS (human bone osteosarcoma)
The assay can be described thus: Receptor arrestin translocation assay (GLP-1 potentiator activity, U2OS cells transfected with GLP-1 receptor gene). The assay is classed as cell-based. Here is the method:
For example, these cells may be plated as monolayer on a test plate (e.g., a 384-well plate). The cells, for example, may be plated at a density of 4000 cells per well. The test sample concentrations may be 0.2-0.000002 mg/ml. The test volumes may be 25 microliter, and the test time may be 1 hr.
GLP-1 receptors are G-protein coupled receptors with seven transmembrane domains. After activation by hormones or neural stimulants, many G-protein coupled cell surface receptors will internalize from the cell surface to the cytoplasm in endocytosis responses. […] This process may be used to assay the test samples. The extents of receptor endocytosis are closely related to the concentrations of the test samples—the higher the sample concentrations, the stronger the endocytosis responses. Because the densities of cell surface receptors are fixed, when the sample concentrations reach a high number, the extents of endocytosis responses would not increase with increasing sample concentrations, i.e., the response reaches saturation. Based on the concentrations and saturation measurements, one can determine the receptor binding affinities of the test samples.
After activation of G-protein coupled receptors, the receptors are typically desensitized or inactivated. Arrestin is involved in such desensitization or inactivation processes. That is, arrestin will be recruited to the GPCR to desensitize or inactivate the receptors. Therefore, monitoring the translocation of GFP-tagged arrestin from the cytosol to the activated GPCRs on the plasma membrane would allow one to measure the binding of test compounds to the receptor target. (Hudson et al., “High-content screening of know G protein-coupled receptors by arrestin translocation,” Methods Enzymol., 414: 63-78 (2006)).
Using this assay, the following test samples have been assessed: (a) compound 1 (MW 318), (b) compound 2 (MW 318), (c) compound 3 (MW 334), (d) compound 5 (MW 304), (e) compound 6 (MW 376). […] When the sample concentrations reach certain high concentrations, the extents of endocytosis responses will not further increase with increasing sample concentrations because the responses have reached saturation.
Based on the binding curves and saturation measurements as a function of test sample concentrations, the receptor affinities of the test samples can be determined.

Another assay relates to RINm5F cells. The assay can be described thus: Insulin secretion tests in rat pancreatic beta cells RINm5F. Type of assay: cell-based. As to conditions: 2 hours, FIG. 4; for insulin secretion with exendin-4: 16 mM glucose, ELISA; for effect on insulin secretion in the absence of exendin-4: no exendin-4, 16 mM glucose. Here is the method:
Rat pancreatic beta cell line RINm5F was purchased from the Food Industry Research and Development Institute (Hsinchu, Taiwan), No. BCRC 60410; source: ATCC CRL-11 605. The cells are cultured in 10% FBS RPMI-1640 medium, in a constant temperature CO2 incubator, under 5% CO2, 37° C. and 95% humidity, for subsequent experiments.
To each 96-well plate, add the RINm5F cells (8×10^5 cells/well) and culture the cells for 2 days before the experiments. Before testing, remove the culture medium. To each well in the 96-well plates, add 100 ul of KRPH buffer (136 mM NaCl, 4.8 mM KCl, 1.2 mM CaCl2, 1.2 mM KH2PO4, 1.2 mM MgSO4, 5 mM NaHCO3, 10 mM HEPES), 2.8 mM D-glucose, 0.2% bovine serum albumin, pH 7.4, placed in a CO2 incubator at 37° C. for 30 minutes, to allow the pancreatic islet cells to acclimate to the medium change (from RPMI 1640 to KRPH buffer). Remove the 96-well plates from the incubator. […] Incubate the cells in KRPH buffer and glucose (KRPH +0.2% BSA, 16 mM glucose) containing culture medium for 2 hours to allow for insulin secretion by the islet beta cells under glucose stimulation. The supernatants from the incubation are collected and the concentrations of insulin released in the wells are assayed using ELISA. Various insulin ELISA kits are available from commercial sources, such as Calbiotech (Spring Valley, Calif.), Crystal Chem., Inc. (Downers Grove, Ill.), and Mercodia (Uppsala, Sweden).
Two days after inoculating RINm5F cells, about 8×10^5 cells/well in 96-well plates, add the active ingredients, compounds 1, 2, and 3, from wild ginger flower 95% ethanol extracts, to the cells. […] After 2 hours, the insulin contents in the supernatants are assessed using insulin ELISA kits.
For orientation: An ELISA detects its analyte on a solid surface through an enzyme-linked reagent.

A further assay deals with normal mice. The assay can be described thus: Intraperitoneal glucose tolerance test (IPGTT) in normal mice. Type of assay: in vivo, C57BL/6J mice. The note with it: for hypoglycemic effects: oral, normal mice IPGTT; for Blood glucose concentration: mean±SEM. How it is done: In this example, in vivo IPGTT is used to validate the blood glucose lowering activity of compound 1 (purity 70%). Twenty-four (24) six weeks old C57BL/6J mice are fed normal diets in an environment of 12/12 light-dark cycles and a constant temperature controlled at 24±2° C. with an unlimited supply of water and food. The mice are divided into four groups of six each, including a control group and three compound 1 (purity 70%) groups. The three compound 1 groups are respectively given orally compound 1 at dosages of 40 mg/Kg, 60 mg/Kg, and 80 mg/Kg. Mice fasted overnight are allowed to eat for 1 hour. After feeding, wait for another hour before giving the test drugs. Thirty (30) minutes after drug administration, glucose at a dose of 1.5 g/kg body weigh is injected intraperitoneally. Blood glucose levels are measured before the glucose injection (0 minutes), as well as at 30, 60 and 90 minutes after the glucose injection, to observe the blood glucose level change curves.
As shown in FIG. 5 and summarized in the Table below, data are expressed as mean±standard error (SEM). P values are calculated using the t test in the Sigma statistical software, wherein p<0.05 is considered significant and marked as *; p<0.01 is considered highly significant and is marked as **; and p≦0.001 is considered extremely significant and marked as ***.

T1 sequence (P43220 24-463, species assumed): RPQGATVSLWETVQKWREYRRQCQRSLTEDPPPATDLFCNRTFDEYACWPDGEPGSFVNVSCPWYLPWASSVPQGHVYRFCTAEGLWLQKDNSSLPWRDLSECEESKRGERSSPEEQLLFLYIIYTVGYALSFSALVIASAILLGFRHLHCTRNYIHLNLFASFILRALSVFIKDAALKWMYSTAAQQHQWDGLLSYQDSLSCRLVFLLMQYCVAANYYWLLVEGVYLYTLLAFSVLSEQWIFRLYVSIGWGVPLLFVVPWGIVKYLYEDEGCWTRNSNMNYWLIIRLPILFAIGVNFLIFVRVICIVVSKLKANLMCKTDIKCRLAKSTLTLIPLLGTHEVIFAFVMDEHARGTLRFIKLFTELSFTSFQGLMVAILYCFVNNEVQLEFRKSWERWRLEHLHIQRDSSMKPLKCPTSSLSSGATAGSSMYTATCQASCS

Usually EC50 stands for the concentration giving half of the maximal effect. `CC1(C)CCC[C@]2(C)[C@H]3CC=C(C=O)C[C@@H](O)[C@]3(C=O)CC[C@@H]12` [Compound 1, Galanal B]: the EC50 on GLP-1 receptor (GLP-1 4-8 nM constant, U2OS cells expressing GLP-1R, FIG. 3) is 6.603 µg/mL. Besides, in the assay on RINm5F cells (exendin-4 2 nM), the “insulin secretion with exendin-4” value was “stimulate more insulin secretions”. Besides, the “effect on insulin secretion in the absence of exendin-4” value (“effect on insulin secretion” below) with RINm5F cells is reported as “substantially abolished”. Further, the hypoglycemic effects with normal mice (40 mg/Kg group) came to 41%; in the assay on normal mice (60 mg/Kg group), 45%; with normal mice (80 mg/Kg group), 71%. For the same molecule, the Blood glucose concentration with normal mice (40 mg/kg oral, compound 1 purity 70%, 0 minute (before glucose injection)) is 120.5 ± 3.8 mg/dL; in the assay on normal mice (40 mg/kg oral, purity 70%, 30 minute after glucose 1.5 g/kg i.p.), 168.2 ± 3.0** mg/dl; in the assay on normal mice (40 mg/kg oral, purity 70%, 60 minute after glucose), 127.0 ± 4.4 mg/dL; in the assay with normal mice (40 mg/kg oral, purity 70%, 90 minute after glucose) it was 117.3 ± 3.4 mg/dL; with normal mice (60 mg/kg oral, purity 70%, 0 minute (before glucose injection)), 121.5 ± 3.7 mg/dL; with normal mice (60 mg/kg oral, purity 70%, 30 minute after glucose), 169.2 ± 3.6** mg/dl. The Blood glucose concentration with normal mice (60 mg/kg oral, purity 70%, 60 minute after glucose) was 128.0 ± 4.0 mg/dL; in the assay on normal mice (60 mg/kg oral, purity 70%, 90 minute after glucose), 111.3 ± 2.9* mg/dl; in the assay with normal mice (80 mg/kg oral, purity 70%, 0 minute (before glucose injection)) it was 120.8 ± 3.7 mg/dL; with normal mice (80 mg/kg oral, purity 70%, 30 minute after glucose), 154.0 ± 2.5*** mg/dl; in the assay on normal mice (80 mg/kg oral, purity 70%, 60 minute after glucose), 120.3 ± 1.8** mg/dl; with normal mice (80 mg/kg oral, purity 70%, 90 minute after glucose) it was 106.7 mg/dL.

Turning to `C=C1CCC2C(C)(C)CCC[C@]2(C)C1C1C=C(C=O)CC(O)O1` (stereo partly drawn) [Compound 2, 11-hydroxy-8(17),12(E)-labdadien-15,16-dial 11,15-hemiacetal], the EC50 on GLP-1 receptor (read-out: EC50 (converted)) was 13.9 µM. Also, the “insulin secretion with exendin-4” value with RINm5F cells (exendin-4 5 nM) is listed as “stimulate more insulin secretions”. The “effect on insulin secretion” value in the assay with RINm5F cells is “substantially abolished”.

With `C=C1CCC2C(C)(C)CCCC2(C)C1C1C=C(C=O)CC(O)OO1` (stereo not drawn) [Compound 3, Coronarin B], the EC50 at GLP-1 receptor (read-out: EC50 (converted)) was 0.196 µM. Besides, on GLP-1 receptor (summary of FIG. 3 results), the “GLP-1 potentiator activity (in words)” value is reported as “most potent”. Further, the “insulin secretion with exendin-4” value in the assay with RINm5F cells (exendin-4 5 nM) was “stimulate more insulin secretions”. The “effect on insulin secretion” value with RINm5F cells is given as “substantially abolished”.

Turning to `C=C1CCC2C(C)(C)CCC[C@]2(C)[C@H]1C/C=C(/C=O)CCO` (stereo partly drawn) [Compound 5, (E)-labda-8(17),12-diene-15-ol-16-al], the EC50 on GLP-1 receptor (read-out: EC50 (converted)) was 8.14 µM.

Regarding `C=C1CCC2C(C)(C)CCC[C@]2(C)[C@H]1C/C=C(/C=O)CC(OCC)OCC` (stereo partly drawn) [Compound 6, (E)-15,15-diethoxylabda-8(17),12-dien-16-al], the EC50 on GLP-1 receptor (read-out: EC50 (converted)) was 11.6 µM.
